Reference: patent publication US11332395B2, “Sanitary food washing stage in food production” (CHEMTREAT, INC., priority 2019, dated 2022)
Read-outs that look alike come from different tables or passages of the source.

Tests used:
[1] = spray table water, initial pH 6.3, 60° F
Experimental: Water samples were taken from the spray table of a sugar beet factory. […] The hydrogen peroxide concentration was measured periodically over a 60 minute period. The oxidation-reduction potential (ORP) was measured over the same period.

[2] = flume return (clarifier inlet) water, initial pH 6.4, 62° F
Experimental: Water samples were taken from the flume return (clarifier inlet) in a sugar beet factory. […] The hydrogen peroxide concentration was measured periodically over a 60 minute period. The oxidation-reduction potential (ORP) was measured over the same period.

[3] = initial dose 60 ppm, time 5 min
[4] = initial dose 60 ppm, time 30 min
[5] = initial dose 60 ppm, time 45 min
[6] = initial dose 60 ppm, time 60 min
[7] = initial dose 120 ppm, time 5 min
[8] = initial dose 120 ppm, time 30 min
[9] = initial dose 120 ppm, time 45 min
[10] = initial dose 120 ppm, time 60 min
[11] = initial dose 180 ppm, time 5 min
[12] = initial dose 180 ppm, time 30 min
[13] = initial dose 180 ppm, time 45 min
[14] = initial dose 180 ppm, time 60 min

`OO` [H2O2, hydrogen peroxide] showed an H2O2 concentration [1, 3] of 50 ppm, an H2O2 concentration [1, 4] of 5 ppm and an H2O2 concentration [1, 5] of 0.5 ppm. It also gave an H2O2 concentration [1, 6] of less than 0.5 ppm, an H2O2 concentration [1, 7] greater than 100 ppm and an H2O2 concentration [1, 8] of 15 ppm. For the same compound, the H2O2 concentration [1, 9] was 2 ppm, the H2O2 concentration [1, 10] was 1 ppm and the H2O2 concentration [1, 11] was greater than 100 ppm. For the same compound, the H2O2 concentration [1, 12] was 25 ppm, the H2O2 concentration [1, 13] was 5 ppm and the H2O2 concentration [1, 14] was 3 ppm. It also gave an H2O2 concentration [2, 3] of 50 ppm, an H2O2 concentration [2, 4] of 3 ppm and an H2O2 concentration [2, 5] of 0.5 ppm. For the same compound, the H2O2 concentration [2, 6] was 0 ppm, the H2O2 concentration [2, 7] was greater than 100 ppm and the H2O2 concentration [2, 8] was 10 ppm. It also gave an H2O2 concentration [2, 9] of 3 ppm, an H2O2 concentration [2, 10] of less than 0.5 ppm and an H2O2 concentration [2, 11] greater than 100 ppm. It also gave an H2O2 concentration [2, 12] of 25 ppm, an H2O2 concentration [2, 13] of 5 ppm and an H2O2 concentration [2, 14] of 1 ppm.
